Results reported in patent US6420570B1, “Psoralen compounds” (priority 1993, dated 2002).
Where a name gives a salt, the structure may show the parent alone. Read-outs that look alike come from different tables or passages of the source.

Legend:
TA1537 = test: Ames assay, dark mutagenicity, strain TA1537
Method: (§1) In this example the compounds of the present invention are tested for their dark mutagenicity using an Ames assay. The procedures used for the Salmonella mutagenicity test as described in detail by Maron and Ames were followed exactly. Maron, D. M. and B. N. Ames, Mutation Research 113:173 (1983). A brief description for each procedure is given here. The tester strains TA97a, TA98, TA100, TA102, TA1537 and TA1538 were obtained from Dr. Ames. TA97a, TA98, TA1537 and TA1538 are frameshift tester strains. TA100 and TA102 are base-substitution tester strains. Upon receipt each strain was cultured under a variety of conditions to confirm the genotypes specific to the strains.
(§2) The first tests done with the strains were to determine the range of spontaneous reversion for each of the strains. With each mutagenicity experiment the spontaneous reversion of the tester strains to histidine independence was measured and expressed as the number of spontaneous revertants per plate. This served as the background controls.
(§3) For all experiments, the pre-incubation procedure was used. In this procedure one vial of each tester strain was thawed and 20 μL of this culture was added to 6 mL of Oxoid Nutrient Broth #2. This solution was allowed to shake for 10 hours at 37° C. In the pre-incubation procedure, 0.1 mL of this overnight culture was added to each of the required number of sterile test tubes. To half of the tubes 0.5 mL of a 10% S-9 solution containing Aroclor 1254 induced rat liver extract (Molecular Toxicology Inc., Annapolis, MD), and MgCl2, KCl, glucose-6-phosphate, NADP, and sodium phosphate buffer (Sigma, St. Louis. Mo.) were added. To the other half of the tubes 0.5 mL of 0.2M sodium phospate buffer, pH 7.4, was used in place of the S-9 mixture (the -S9 samples) Finally 0.1 mL of the test solution containing either 0.0.1, 0.5, 1, 5, 10, 50, 100, 250, or 500 μg/mL of the test compound was added. The 0.7 mL mixture pre-incubated while shaking for 20 minutes at 37° C. After shaking, 2 mL of molten top agar supplemented with histidine and biotin were added to the 0.7 mL mixture and immediately poured onto a minimal glucose agar plate (volume of base agar was 20 ml.). The top agar was allowed 30 minutes to solidify and then the plates were inverted and incubated for 44 hours at 37° C. After incubation the number of revertant colonies on each plate were counted. […] (“n” represents the number of replicates performed for each data point.)
(§4) Maron and Ames (1983) describe the conflicting views with regard to the statistical treatment of data generated from the test.

R17 [1] = test: R17 inactivation at constant concentration, varying doses of UV light; type: cell-based, bacteriophage R17; conditions: UV doses 1.0 to 3.0 J/cm^2, FIGS. 11-17
Method: Compounds of the present invention were also tested at a constant concentration for varying doses of UV light. Three sets of 1.5 mL tubes were prepared containing 0.6 mL aliquots of R17 in DMEM (prepared as described above). The compound tested was added at the desired concentration and the samples were vortexed. The samples were then irradiated at intervals of 1.0 J/cm^2, until 3.0 J/cm^2 was reached. Between each 1.0 J/cm^2 interval, 100 μL was removed from each sample and placed in the first corresponding dilution tube, then five sequential dilutions were performed for each compound tested, at all 3 irradiation doses, as described above in this example.
Then 50 μL of Hfr 3000 bacteria was added to each tube, 3 mL of top agar was added and the tube contents were vortexed. The contents of each tube was poured into its own LB plate and the plates were incubated overnight at 37° C. Plaques were counted by visual inspection the following morning.

R17 [2] = test: R17 bacteriophage inactivation screen, varying compound concentration; type: cell-based; conditions: starting titer approx. 7.1 logs
Method: The assay used to predict pathogen inactivation efficiency and to determine nucleic acid binding of the photoreactive binding compounds of the present invention was that in which a bacteriophage, R17, in solution with the desired substrate was irradiated. The ability of the phage to subsequently infect bacteria and inhibit their growth was measured. The bacteriophage was selected for its relatively accessible nucleic acid such that the culture growth inhibition would accurately reflect nucleic acid damage by the test compounds. The bacteriophage assay for nucleic acid binding to test compounds offers a safe and inexpensive procedure to identify compounds likely to display efficient pathogen inactivation. […] An aliquot (0.5 mL) was transferred to a 1.5 mL, snap-top polyethylene tube. An aliquot (0.004-0.040 mL) of the test compound stock solution prepared in water, ethanol or dimethylsulfoxide at 0.80-8.0 mM was added to the tube. Compounds were tested at concentrations between 4 μM and 320 μM. (AMT is commercially available from HRI, Inc., Concord, Calif.; 8-MOP is commercially available from Sigma, St. Louis, Mo.). The tubes were placed in a light device as described in EXAMPLE 1 and irradiated for between 1 and 10 minutes. […] To make the dilutions, a 0.100 mL aliquot of the irradiated solution of phage and test compound was added to the first dilution tube of 0.4 mL of media then 0.020 mL of this solution was added to the second tube of 0.5 mL medium (1:25). The second solution was then diluted serially (1:25) into the remaining tubes. […] After the top agar hardened, the plates were incubated at 37° C. overnight. The plaque forming units were then counted the following morning and the titer of the phage remaining after phototreatment was calculated based on the dilution factors. The following controls were run: the “phage only” in which phage was not treated with test compound and not irradiated (listed as “starting titer” in the tables below); the “UV only” in which the phage was irradiated in the absence of test compound; and the “dark” control in which the phage/test compound solution was not irradiated before it was diluted and plated.

[3] = system: Salmonella tester strains; test: Ames assay, dark mutagenicity, overall over tester strains; conditions: base-substitution tester strains TA100 and TA102
Method: as §1, §2, §3, §4

TA98 = test: Ames assay, dark mutagenicity, strain TA98
Method: as §1, §2, §3, §4

TA100 = system: TA100
Method: as §1, §2, §3, §4

Cc1oc2c(C)c3oc(=O)cc(C)c3cc2c1CNCCCCN [Compound 6, 4′-(6-Aminohexyl-2-aza)-4,5′,8-trimethylpsoralen Dihydrochloride]
revertant colonies per plate (TA1537; TA1537 +S9, 10 μg/plate): −1
revertant colonies per plate (TA1537; TA1537 +S9, 50 μg/plate): 17
revertant colonies per plate (TA1537; TA1537 +S9, 250 μg/plate): 99
revertant colonies per plate (TA1537; TA1537 +S9, 500 μg/plate): 369
dose showing a response (TA1537; TA1537, in the presence of S9): 50 μg/plate
revertant colonies per plate (TA1537; TA1537 −S9, 10 μg/plate): 141
revertant colonies per plate (TA1537; TA1537 −S9, 50 μg/plate): 2010
revertant colonies per plate (TA1537; TA1537 −S9, 100 μg/plate): 795
revertant colonies per plate (TA1537; TA1537 −S9, 250 μg/plate): 228
revertant colonies per plate (TA1537; TA1537 −S9, 500 μg/plate): 43
R17 inactivation compared with AMT (R17 [1]): more efficient at inactivating R17 than was AMT
R17 log kill 16 uM (R17 [2]; Table 6, 1 minute irradiation = 1.2 J/cm^2): >6.1 log
R17 log kill 32 uM (R17 [2]; Table 6, 32 uM, 1 minute irradiation = 1.2 J/cm^2): >6.1 log
R17 log kill 64 uM (R17 [2]; Table 6, 64 uM, 1 minute irradiation = 1.2 J/cm^2): >6.1 log
R17 log kill 8 uM (R17 [2]; Table 7, 8 uM, 1 minute irradiation): >6 log
R17 log kill 16 uM (R17 [2]; Table 7, 1 minute irradiation): >6 log
base-substitution mutagenicity [3]: no base substitution mutagenicity
revertant colonies per plate (TA98; TA98 +S9, 10 μg/plate): −5
revertant colonies per plate (TA98; TA98 +S9, 250 μg/plate): 40
revertant colonies per plate (TA98; TA98 +S9, 500 μg/plate): 52
revertant colonies per plate (TA98; TA98 −S9, 10 μg/plate): 12
revertant colonies per plate (TA98; TA98 −S9, 50 μg/plate): 12
revertant colonies per plate (TA98; TA98 −S9, 100 μg/plate): 22
revertant colonies per plate (TA98; TA98 −S9, 250 μg/plate): 12
revertant colonies per plate (TA98; TA98 −S9, 500 μg/plate): 9
revertant colonies per plate (TA100; TA100 +S9, 5 μg/plate): 12
revertant colonies per plate (TA100; TA100 +S9, 10 μg/plate): −5
revertant colonies per plate (TA100; TA100 −S9, 5 μg/plate): −32
revertant colonies per plate (TA100; TA100 −S9, 10 μg/plate): 3
